The values that follow come from US9221822B2, “Thiazolopyrimidine modulators as immunosuppressive agents” (Katholieke Universiteit Leuven, K.U.Leuven R&D, priority 2009, dated 2015).

Structures are written as SMILES.

As a reminder, the melting point is the temperature, or range, at which the solid turns liquid. Turning to `CCOc1nc(N)nc2sc(-c3ccc(F)cc3)cc12` [Example 363, 4-ethoxy-6-(4-fluorophenyl)thieno[2,3-d]pyrimidin-2-amine], the melting point came to 142 °C.
